{
  "source": "patent US6046231A",
  "about": "“Use of 4'-bromoflavone in a cancer chemopreventative composition and method” (The Board of Trustees of the University of Illinois, priority 1999, dated 2000)",
  "key": {"[1]": {"test_system": "QR ARE-CAT construct, HepG2 cells", "test": "CAT expression in HepG2 cells transfected with QR ARE-CAT", "type": "cell-based, human cells; rat QR gene", "details": "10 μM, 48 h; p<0.0001", "protocol": "(§1) Transcient Transfection Gene Expression Assay. Cultured HepG2 human hepatoma cells were transfected with three plasmid constructs (PDTD-1697CAT, XRE-CAT, ARE-CAT) containing various portions of the 5'-region of the QR gene fused to the CAT gene using the calcium phosphate precipitation method (J. Sambrook et al., Molecular cloning: A Laboratory Handbook, Ed. Chris Nolan, CHS Laboratory Press, 1989). After 4 hours of transfection, the cells were treated with 10% glycerol for 3 minutes and rinsed with PBS and switched to MEM, containing 100 units/ml penicillin G sodium, 100 units/ml streptomycin sulfate, nonessential amino acids, and 1 mM sodium pyruvate (Life Technologies Inc.) supplemented with 10% fetal bovine serum for 12-16 hours recovery. Then, test agents were added to the cells. After 48 hours of treatment with the test agents, cells were harvested with lysis buffer (Boehringer Mannheim Biochemical) and CAT protein expressions were assessed using a CAT ELISA kit (Boehringer Mannheim Biochemical). CAT enzyme expression was normalized for the protein content of each sample. All data were expressed as mean +/- SD. Means were compared using Student's t test with n=4.\n(§2) This was further investigated in transient transfection experiments wherein human hepatoma cells were transfected with DNA constructs containing various portions of the 5' upstream promoter region of the QR gene linked to the CAT reporter gene by using the calcium phosphate precipitation method. Construct pDTD-1097CAT contains elements of the rat QR gene connected to the CAT construct gene. […]\n(§3) In particular, FIG. 1 illustrates quantitation of CAT expression in HepG2 cells transfected with QR-CAT constructs. […] CAT expression (ng CAT/mg protein) was determined using a CAT ELISA, and the ratio of CAT expression between treated and control cells was calculated (ratio=treated/control)."}, "GST Yb (μ class)": {"test_system": "GST Yb (μ class)", "test": "Western blot of GST Yb (μ-type) expression in H4IIE cells", "type": "cell-based, rat", "protocol": "(§4) Western Blot Analysis Glutathione S-transferase Expression. Cultured H4IIE rat hepatoma cells were treated with test agent with various concentrations or various time points. […] Cells were harvested using SDS lysis buffer (20 mM Tris-Cl, pH 6.8, containing 0.4% SDS (w/v), 4% glycerol, 0.24 M β-mercaptoethanol, and 0.5% bromphenol) and the lysates were boiled for 5 minutes, then stored at -20° C. An aliquot of lysate was used for protein determination using a bicichoninic acid protein assay kit with BSA as a standard. Equivalent amounts of protein were electrophoresed by SDS-PAGE on precast 12.5% Tris-glycine acrylamide gels (Novex, San Diego, Calif.), then transferred to polyvinylidene difluoride (PDVF) membranes. Nonspecific binding sites were blocked with 10% nonfat dry milk and blotting was performed with goat polyclonal antirat GSTYa (α class) IgG or antirat, GSTYb (μ class) IgG and analyzed by alkaline phosphatase-conjugated antigoat IgG secondary antibody (Oxford Biomed Research, Inc.) and quantified using an AP 20 Alkaline Phosphatase Kit detection system (Oxford Biomed Research, Inc.).\n(§5) Induction of Expression of Glutathione S-transferase Ya (α-type) and Yb (μ-type) in Cell Cultures. […] To date, the superfamily of mammalian cytosolic GST isozymes has been defined genetically to consist of four classes; α, μ, π, and θ, which differ in tissue-specificexpression and distribution, as well as substrate specificity. […] Cultured H4IIE cells were treated either with 10 μM of 4'-BF (FIG. 7B) or sulforaphane for 0, 2, 4, 8, 16, 24, and 48 hours for a time-dependent study, or with 0.16, 0.8, 4, 10, 20, and 50 μM of 4'-BF (FIG. 7A) or sulforaphane for 24 hr for a dose-dependent study (FIG. 7A). The expressions of two major detoxification isoforms of GSTs (GST Ya: α-type, and GST Yb: μ-type) mediated by 4'-BF or sulforaphane were investigated in H4EII rat hepatoma cells using Western blotting technique."}, "[2]": {"test_system": "quinone reductase (QR), Hepa 1c1c7 cells", "details": "reported comparator value; cited from earlier work"}, "GST Ya (α class)": {"test_system": "GST Ya (α class)", "test": "Western blot of GST Ya (α-type) expression in H4IIE cells", "type": "cell-based, rat", "protocol": "as §4, §5"}, "Hepa 1c1c7 cells [3]": {"test_system": "Hepa 1c1c7 cells", "test": "Hepa 1c1c7 cell viability (cytotoxicity)", "type": "cell-based, murine", "details": "Mus musculus, Hepa-1c1c7, read-out: IC50, concentration for 50% inhibition of cell viability"}, "[4]": {"test_system": "quinone reductase (QR), Hepa 1c1c7 cells", "test": "Quinone reductase (QR) induction in Hepa 1c1c7 cells", "type": "cell-based, murine", "source_text": "This test was used because the specific activity of QR rises concomitantly with other phase II enzymes in many animal tissues in response to various chemopreventive agents. The study included natural and synthetic B-ring substituted flavones, as well as biosynthetic precursor chalcones and flavanones.\nDetermination of Quinone Reductase Activity in Cell Cultures. To determine the potency of inducers, Hepa 1c1c7 murine hepatoma cells as described in the Gerhauser publication were placed in 96-well plates at a density of 1×10^4 cells/ml in 200 μl of medium. After a preincubation period of 24 hr, the media were decanted and 190 μl fresh media were added to each well. Ten (10) μl test agents dissolved in 10% DMSO (final concentration of DMSO is 0.5%) with a serial 2-fold dilutions were introduced to each well, and the plates were incubated for an additional 48 hours. Specific QR activity was determined by measuring the NADPH-dependent menadiol-mediated reduction of 3-(4, 5-dimethylthiazo-2-yl)-2,5-diphenyltetrazolium bromide to blue formazan formed per mg protein per minute. Protein was determined in an identical set of test plates by staining with crystal violet. Hepa 1c1c7 cells retain many characteristics of normal issues, particularly the capacity for carcinogen activation and metabolism. They are amenable to precise control of environmental, nutritional, and hormonal factors. […] Induction of QR activity was calculated by comparing the QR specific activity of agent-treated cells with that of solvent-treated cells, and a plot of ratio was generated. CD represents the concentration required to double QR induction. Chemopreventive index (CI) is an indexing value generated by comparing CD with IC50 (concentration for 50% inhibition of cell viability) values.\nInduction of Quinone Reductase in Hepa 1c1c7 Cells. […] Modification of the B-ring of chalcones, flavanones, and flavones was hypothesized to induce torsion of the B-ring, and, therefor, simulate out-of-plane distortions characteristic of polycyclic aromatic hydrocarbons, such as DMBA. Induction of QR activity was calculated by comparing the QR specific activity of agent-treated cells with the QR specific activity of solvent-treated cells, and a plot of ratios was generated. CD represents the concentration required for a double fold of induction. CI (Chemopreventive Index) is a value obtained by comparing CD with IC50 (concentration for 50% inhibition of cell viability in […])."}, "[5]": {"test_system": "QR XRE-CAT construct, HepG2 cells", "test": "CAT expression in HepG2 cells transfected with QR XRE-CAT", "type": "cell-based, human cells; rat QR gene", "details": "10 μM, 48 h", "protocol": "as §1, §2, §3"}, "[6]": {"test_system": "pDTD-1097CAT construct (QR gene 5'-region), HepG2 cells", "test": "CAT expression in HepG2 cells transfected with pDTD-1097CAT", "type": "cell-based, human cells; rat QR gene", "details": "10 μM, 48 h; p<0.0001", "protocol": "as §1, with “CAT enzyme expression was normalized for the protein content of each sample.” left out, “Means were compared using Student's t test with n=4.” left out\nas §3"}, "H4IIE rat hepatoma cells": {"test_system": "H4IIE rat hepatoma cells", "test": "Toxicity in H4IIE rat hepatoma cells", "type": "cell-based"}, "Hepa 1c1c7 cells [7]": {"test_system": "Hepa 1c1c7 cells", "details": "comparator value; read-out: IC50 (toxicity), comparison value; cited from earlier work"}},
  "note": "“Also recorded” adds a separate entry of the source. Where two headings read alike, the source gives them in different places.",
  "data": [
    {"molecule": "C[S+]([O-])CCCCN=C=S", "note": "(stereo not drawn) [Sulforaphane, sulforaphane, reference compound]", "values": [
      {"measurement": "CAT expression, QR ARE-CAT", "setting": "[1]", "value": "significantly (p<0.0001) induced; also recorded: selectively interacted with the ARE"},
      {"measurement": "maximum induction time, GST Yb", "setting": "GST Yb (μ class); 10 μM, 0-48 h", "value": "16 to 24", "unit": "h"},
      {"measurement": "maximum induction concentration, GST Yb", "setting": "GST Yb (μ class); 0.16-50 μM, 24 h", "value": "4 to 10", "unit": "µM"},
      {"measurement": "GST Yb (μ) induction", "setting": "GST Yb (μ class); H4IIE cells", "value": "Time, dose-dependent induction"},
      {"measurement": "CD, comparison value", "setting": "[2]", "value": 0.23, "unit": "µM"},
      {"measurement": "maximum induction time, GST Ya", "setting": "GST Ya (α class); 10 μM, 0-48 h", "value": "16 to 24", "unit": "h"},
      {"measurement": "maximum induction concentration, GST Ya", "setting": "GST Ya (α class); 0.16-50 μM, 24 h", "value": "4 to 10", "unit": "µM"},
      {"measurement": "GST Ya (α) induction", "setting": "GST Ya (α class); H4IIE cells", "value": "Time, dose-dependent induction"},
      {"measurement": "IC50", "setting": "Hepa 1c1c7 cells [3]", "value": 11, "unit": "µM"},
      {"measurement": "CI, chemoprevention index (IC50/CD)", "setting": "[4]; IC50/CD, 2880 min", "value": 26},
      {"measurement": "EC (2-fold)", "setting": "[4]; Mus musculus, Hepa-1c1c7, 48 h, Hepa 1c1c7 cells, 48 h, read-out: CD, concentration to double the specific activity of QR", "value": 0.43, "unit": "µM"},
      {"measurement": "CAT expression, QR XRE-CAT", "setting": "[5]", "value": "not observed"},
      {"measurement": "CAT expression, pDTD-1097CAT", "setting": "[6]", "value": "significantly (p<0.0001) induced"},
      {"measurement": "toxicity in H4IIE cells", "setting": "H4IIE rat hepatoma cells", "value": "a declined induction for sulforaphane was observed at a concentration higher than 10 μM due to the toxic effects"}
    ]},
    {"molecule": "O=c1cc(-c2ccccc2)oc2ccc3ccccc3c12", "note": "[β-naphthoflavone]", "values": [
      {"measurement": "CAT expression, QR ARE-CAT", "setting": "[1]", "value": "significantly (P<0.0001, students t test with n=4) induced"},
      {"measurement": "CD, comparison value", "setting": "[2]", "value": "0.02 to 0.04", "unit": "µM"},
      {"measurement": "CAT expression, QR XRE-CAT", "setting": "[5]", "value": "significantly (P<0.0001, students t test with n=4) induced"},
      {"measurement": "IC50", "setting": "Hepa 1c1c7 cells [7]", "value": 8, "unit": "µM"}
    ]}
  ]
}
